Here are results for three compounds from patent US20050249808A1, “NSAIDs compositions containing tartaric acid” (priority 2001, published 2005).

Data set [1] is described as follows: Oral bioavailability of ibuprofen crushed tablets in control rats. Conditions: male, Sprague-Dawley, rat, plasma, 20 mg/kg, oral 20 mg/kg ibuprofen as crushed tablets, read-out: AUC (0-8). It is filed as in vivo. As for the experimental part: The animal models are Adult male Sprague-Dawley rats with body weight of 250-300 g, and which were cared for in accordance with the principles and guidelines of the Canadian Council of Animal Care. All rats were catheterized in the right jugular vein for sample collection.
The tablets were crushed gently and small pieces were administered into the stomach via a plastic tube followed by 0.5 mL tap water. […] They had free access to water.

For data set [2] the following is noted: cited from earlier work; for AUC0-2h: 600 mg ibuprofen dose.
For data set [3] the following is noted: parts of drug dissolving in 10,000 parts of water; cited from earlier work.

Like-named read-outs stand apart in the source and are kept apart here.

For the compound `CC(C)Cc1ccc(C(C)C(=O)O)cc1` (racemic) [ibuprofen, (±)-2-(4-Isobutylphenyl)propionic acid], the AUC(0-t) in data set [1] worked out at 139000 ng·h/mL. Also, the “change in mean time to peak concentration caused by surgery” value in data set [2] (200 mg and 600 mg doses, dental surgery) is “two hour delay”. For the same compound, the “AUC0-6h, effect of surgery” value in data set [2] (dental surgery) is on record as “significantly reduced”. Further, in data set [3], the solubility in water result is on record as “less than 1 part”.

In the case of `CC(C)Cc1ccc([C@@H](C)C(=O)O)cc1` [R-ibuprofen, R(−)-2-(4-isobutylphenyl)propionic acid], the AUC0-2h was 5800 ± 7100 ng·h/mL in data set [2] (after dental extraction) and 14400 ± 9500 ng·h/mL in data set [2] (before dental extraction).

Regarding `CC(C)Cc1ccc([C@H](C)C(=O)O)cc1` [S-ibuprofen, S(+)-2-(4-isobutylphenyl)propionic acid], the AUC0-2h in data set [2] (after dental extraction) was 7200 ± 5500 ng·h/mL; in data set [2] (before dental extraction), 14200 ± 6100 ng·h/mL.
